Measured values reported in patent US10266520B2, “Bisamidinium-based inhibitors for the treatment of myotonic dystrophy” (The Board of Trustees of the University of Illinois, priority 2014, dated 2019).

Tests used:
GFP-MBNL-rCUG^exp foci = assay: Nuclear foci disruption, FISH/confocal with GFP-MBNL1 in DM1 model HeLa cells; assay type: cell-based
Method: FIG. 2A-C. (a) Representative confocal microscope images showing the GFP-MBNL-rCUG^exp foci disruption by compounds 1a and 2a. (b) Percent of foci area per cell after treatment of ligands for 48 h. The sequestration and dispersion of endogenous MBNL under the treatment of ligand are quantitatively measured. Error bars represent standard errors of mean from at least four independent experiments, two-tail t-test *P<0.005. Note: This was a head-to-head comparison between compounds 1a and 2a. […] The difference is attributed to variability in cells and conditions. (c) Cytotoxicity profile of compound 2a.
To evaluate the ability of dimer 2a to disrupt the […] in DM1 model cells, a standard fluorescence in situ hybridization experiment using exogenous MBNL was performed (FIG. 2a) (see Jahromi et al., ACS Chem. Biol. 2013, 8, 1037-1043). Here, GFP-MBNL1 was employed because of its intense signal and ability to easily monitor the location of the MBNL1 in live cells. Thus, normal HeLa cells were transfected with a plasmid containing GFP-MBNL1. To generate DM1 model cells, these HeLa cells were also transfected with a DMPK plasmid containing (CTG)960. […] The presence of MBNL1 was indicated as a green color from GFP signal for GFP-MBNL1 (Column 2), whereas (CUG)960 was detected by a complementary sequence (CAG)10 conjugated with a Cy3 dye and represented by a red color (Column 3). […]

[1] = test system: Drosophila flies (gmr-GAL4>UAS-i(CTG)480; CTG60 control); assay: Rough eye phenotype in DM1 Drosophila model; assay type: in vivo; conditions: for eye structure of control flies: 400 μM, CTG60 Drosophila flies
Method: FIG. 4A-C. Efficacy of 1a and 2a in DM1 Drosophilia fly mode. (a) Improvement in adult rough eye phenotype. Each experiment was conducted in triplicate. (b) Effect of ligands on the control Drosophilia larvae (24B−GAL4>UAS−(CTG)60). (c) Dose-dependent effect of ligands on the DM1 larvae (24B−GAL4>UAS−i(CTG)480). Each experiment was conducted in triplicate, 10 individual larvae for each trial. Error bars represent standard deviation, two tail t-test *P<0.05, **P<0.01, ***P<0.001.
Drosophila lines were cultured in standard cornmeal medium supplemented with dry yeasts. Fly lines bearing UAS-(CTG)60 and UAS-(CTG)480 were kind gifts of Prof. Rubén Artero Allepuz (Universitate de València, Estudi General, Spain). The gmr-GAL4 and […] lines were used to drive UAS transgene expression in eye and muscles respectively. Ligands 1a and 2a were dissolved in ddH2O and mixed with fly food. Genetic crosses were set up in drug-containing fly food at 21.5° C. for external eye assay, and at 25° C. for larval crawling assay.

[2] = test system: MBNL1-rCUG^exp nuclear foci; conditions: cited from earlier work
[3] = test system: insulin receptor (IR) pre-mRNA splicing; conditions: DM1 model cells; cited from earlier work
[4] = earlier work; cited from earlier work
HeLa cells = assay: SRB cytotoxicity assay; assay type: cell-based
Method: This finding indicates an advantage of the bisamidinium-based ligands over the acridine-containing ligands.
ITC, EMSA, confocal microscopy, IR splicing, and the reversal of rough-eye phenotype assays were conducted as previously described (Wong et al., J. Am. Chem. Soc. 2014, 136, 6355-6361). The cytotoxicity of 2a was accessed using a published protocol (Vichai et al., Sulforhodamine B colorimetric assay for cytotoxicity screening, Nat. Protoc. 2006, 1, 1112-1116).

[5] = test system: insulin receptor (IR) pre-mRNA splicing; assay: Correction of IR alternative splicing in DM1 cell model (RT-PCR); assay type: cell-based; conditions: 1 μM
From the text: FIG. 3A-B. (a) Schematic representation of IR alternative splicing. (b) Correction of IR splicing by compounds 2a and 1a as determined by conventional RT-PCR. Error bars represent standard deviation for three independent experiments, two-tail t-test *P<0.01,**P<0.005.
Because 2a is capable of inhibiting MBNL1-rCUG^exp both in vitro and in cells, we evaluated its ability to correct the splicing defects in the DM1 cell model. We chose to examine the IR mRNA mis-splicing, because among several pre-mRNA splicing defects associated with the depletion of MBNL1 protein, the reversal of IR splicing requires the largest amount of free MBNL1 and is therefore the more challenging defect. During the alternative splicing of IR, two products were generated: isoforms IR-A and IR-B with the exclusion and inclusion of exon 11, respectively (FIG. 3a). In normal skeletal muscle, IR-B is the dominant isoform, whereas IR-A is more abundant in DM1 skeletal muscle. […] In particular, compound 2a at 1 μM increased the abundance of isoform B to 49% (ca. 80% correction).
ITC, EMSA, confocal microscopy, IR splicing, and the reversal of rough-eye phenotype assays were conducted as previously described (Wong et al., J. Am. Chem. Soc. 2014, 136, 6355-6361). […]

| SMILES | foci dispersion (GFP-MBNL1) (GFP-MBNL-rCUG^exp foci; 100 μM) | eye structure of control flies [1] | reduction of foci to (previous study) ([2]; 100 μM, previous study) | MBNL1-rCUG^exp nuclear foci in DM1 model cells (earlier work) ([2]; earlier work) | mis-splicing of cTNT and IR pre-mRNA (earlier work) [3] | cytotoxicity [4] | foci dispersion (GFP-MBNL1) (GFP-MBNL-rCUG^exp foci; 1, 10, and 100 μM) | HeLa cell death (HeLa cells; 100 μM, 96 h) | cellular toxicity (HeLa cells; lower concentrations (below 100 μM)) | correction of IR splicing ([5]; DM1 cell model) | abundance of IR isoform B ([5]; DM1 cell model (normal ca. 53%, DM1 34%)) | rough eye phenotype ([1]; 50 μM in fly food, gmr-GAL4>UAS-i(CTG)480 flies) |
| --- | --- | --- | --- | --- | --- | --- | --- | --- | --- | --- | --- | --- |
| N=C(NCCCCNc1nc(N)nc(N)n1)c1ccc(C(=N)NCCCCNc2nc(N)nc(N)n2)cc1 [Compound 1a] | foci dispersion was observed | did not change the fly's eye structure | 32% | dissolved foci | partially rescuing the mis-splicing | low cytotoxicity |  |  |  |  |  |  |
| N=C(NCCCCNc1nc(N)nc(N)n1)c1ccc(C(=N)NCCCCNc2nc(N)nc(NCCCn3cc(CNc4nc(N)nc(NCCCCNC(=N)c5ccc(C(=N)NCCCCNc6nc(N)nc(N)n6)cc5)n4)nn3)n2)cc1 [Compound 2a] |  | did not change the fly's eye structure |  |  |  |  | foci dispersion was observed | ca. 10% | negligible cellular toxicity | ca. 80% | 49% | partial reversal of rough eye phenotypes |
